Assay results taken from publication PMC9462851, “Redox-controlled reorganization and flavin strain within the ribonucleotide reductase R2b–NrdI complex monitored by serial femtosecond crystallography” (eLife, 2022).

How the values were obtained:
[1] = target: T1, BcR2b–NrdI complex (BcR2bMnMn–NrdI) (Bacillus cereus, UniProt Q81G55+Q81G57); assay: serial femtosecond crystallography (XFEL), […] Å; assay type: binding; conditions: Mn(II)/Mn(II) R2b, room temperature
T1 construct: Untagged purification from E. coli BL21(DE3), plasmids pET22b-BcnrdI and pET22b-Bcr2b; NrdI 118 residues, 13,449 Da; R2b 322 residues, 37,017 Da, produced metal-free then Mn(II)-loaded; 1:1 complex, dimer of heterodimers
T1 sequence (Q81G57 1-119): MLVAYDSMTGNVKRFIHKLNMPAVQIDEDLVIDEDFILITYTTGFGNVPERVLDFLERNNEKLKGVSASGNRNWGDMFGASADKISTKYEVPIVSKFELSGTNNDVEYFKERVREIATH
T1 sequence (Q81G55 1-322): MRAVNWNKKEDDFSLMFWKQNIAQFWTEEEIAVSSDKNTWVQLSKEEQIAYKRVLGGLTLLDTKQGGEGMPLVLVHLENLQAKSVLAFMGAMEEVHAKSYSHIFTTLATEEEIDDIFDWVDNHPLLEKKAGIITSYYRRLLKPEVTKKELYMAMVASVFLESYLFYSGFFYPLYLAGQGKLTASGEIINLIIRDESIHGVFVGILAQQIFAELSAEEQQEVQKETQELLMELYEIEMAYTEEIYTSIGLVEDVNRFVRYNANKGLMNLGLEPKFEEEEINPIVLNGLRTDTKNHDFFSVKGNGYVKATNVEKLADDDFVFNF

[2] = target: Bacillus cereus ribonucleotide reductase class Ib R2 subunit (R2b), di-manganese form (Bacillus cereus); assay: crystal structure; serial femtosecond crystallography at an XFEL (LCLS MFX), room temperature, 2.0 Å; complex reconstituted in vitro by mixing 0.25 mM BcR2b (with 12 equivalents Mn(II)Cl2) and 0.25 mM BcNrdI in 50 mM Tris-HCl pH 7.5, 20°C; batch crystals with NrdI oxidized (7Z3D) or reduced in the crystal with dithionite to the hydroquinone (7Z3E)

`Cc1cc2c(cc1C)N(C[C@H](O)[C@H](O)[C@H](O)COP(=O)(O)O)c1[nH]c(=O)[nH]c(=O)c1N2` [FMNhq, hydroquinone flavin mononucleotide] was tested, and the “serial femtosecond crystallography (XFEL), 2.0 Å” value ([1]; anaerobic, crystals reduced with sodium dithionite, noncovalent FMN in NrdI at the R2b interface) was “The corresponding structure is denoted BcR2bMnMn–NrdIhq (PDB ID: 7Z3E)”.

With `Cc1cc2nc3c(=O)[nH]c(=O)nc-3n(C[C@H](O)[C@H](O)[C@H](O)COP(=O)(O)O)c2cc1C` [FMNox, flavin mononucleotide] the “serial femtosecond crystallography (XFEL), 2.0 Å” value ([1]; oxidized crystals grown aerobically, noncovalent FMN in NrdI at the R2b interface (R2b Phe17, Gln20)) was “The structure from these crystals is later referred to as BcR2bMnMn–NrdIox (PDB ID: 7Z3D)”.

B1: Bacillus cereus NrdI (flavoprotein with bound flavin mononucleotide) (natural protein)
chain: MLVAYDSMTGNVKRFIHKLNMPAVQIDEDLVIDEDFILITYTTGFGNVPERVLDFLERNNEKLKGVSASGNRNWGDMFGASADKISTKYEVPIVSKFELSGTNNDVEYFKERVREIAT
Molecule B1 has a stoichiometry N [2] of 1.
